Measured values: patent US20260206755A1, “COMPOUNDS AND COMPOSITIONS HAVING KNOCK-DOWN OR BLOOD FEED INHIBITION ACTIVITY AGAINST INSECT PESTS” (priority 2017, published 2026)

Tested on: Anopheles stephensi
Assay: Anopheles stephensi treated well plate contact test: knockdown and mortality
Format: in vivo
Conditions: for mortality % 24, with TFNA-AM / mortality % 24, without TFNA-AM: after 24 hours; for mortality % 48, with TFNA-AM / mortality % 48, without TFNA-AM: after 48 hours; for Knock Down, with TFNA-AM / Knock Down, without TFNA-AM: knockdown after 1 hour
Summary of the method: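 Well surfaces coated with ethanol solution of compound at a defined concentration, alone or with 2 ppm TFNA-AM, then dried. Five non-blood-fed 2–5-day-old adult females per well, fed 10% sucrose; knockdown scored at 1 hour, mortality at 24 and 48 hours, replicate means reported.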

[1] = test compound 0.2 ppm plus 2 ppm TFNA-AM
[2] = test compound 2 ppm plus 2 ppm TFNA-AM
[3] = test compound 20 ppm plus 2 ppm TFNA-AM
[4] = test compound 200 ppm plus 2 ppm TFNA-AM

CO/C=C(/C(=O)OC)c1ccccc1COc1cccc(C(F)(F)F)n1 [Picoxystrobin]
30%: mortality % 24, with TFNA-AM [1] | Knock Down, without TFNA-AM (test compound 20 ppm)
0%: mortality % 24, without TFNA-AM (test compound 0.2 ppm) | mortality % 48, without TFNA-AM (test compound 0.2 ppm) | Knock Down, without TFNA-AM (test compound 0.2 ppm) | mortality % 48, without TFNA-AM (test compound 2 ppm) | Knock Down, without TFNA-AM (test compound 2 ppm)
20%: mortality % 48, with TFNA-AM [1]
100%: Knock Down, with TFNA-AM [1] | Knock Down, with TFNA-AM [2] | mortality % 24, with TFNA-AM [3] | mortality % 48, with TFNA-AM [3] | Knock Down, with TFNA-AM [3] | mortality % 48, without TFNA-AM (test compound 20 ppm) | mortality % 24, with TFNA-AM [4] | mortality % 48, with TFNA-AM [4] | Knock Down, with TFNA-AM [4] | mortality % 24, without TFNA-AM (test compound 200 ppm) | mortality % 48, without TFNA-AM (test compound 200 ppm) | Knock Down, without TFNA-AM (test compound 200 ppm, adult females)
90%: mortality % 24, without TFNA-AM (test compound 20 ppm)
50%: mortality % 24, without TFNA-AM (test compound 2 ppm)
80%: mortality % 24, with TFNA-AM [2] | mortality % 48, with TFNA-AM [2]
